# US11185551B2, “Peripherally-restricted dual-acting kappa and delta opioid agonist for analgesia in pain states involving the inflammatory response” (Caventure Drug Discovery, Inc., priority 2017, dated 2021)
# Columns and labels:
# [1] = system: CFA-induced mechanical hyperalgesia; assay: CFA model of rheumatoid arthritis pain in rats (joint compression thresholds); format: in vivo, male Sprague-Dawley rats; settings: for improvement of compression thresholds vs vehicle: 30 mg/kg PO
# Experimental: Following IACUC approval and acclimation, inflammatory arthritis pain was induced in 55 male, Sprague-Dawley rats by intracapsular injection of 50 μL of 100% complete Freund's adjuvant (CFA) into the tibio-tarsal joint of the left hind leg. Mechanical hyperalgesia was assessed via joint compression thresholds (JCTs), JCTs were determined prior to CFA injection and 14 days post-CFA, prior to study article administration. At that time, 50 animals that met the inclusion criterion were randomly assigned to 5 groups with 10 animals per group (Table 3). To further confirm the validity as a model for arthritic pain, the anti-inflammatory cyclooxygenase-2 inhibitor, celecoxib, was used as an active control.
# Animals were administered a single dose of test or control compound on day 0 (i.e., 14 days after administration of CFA) and thresholds were determined 1, 2, and 4 hours after compound administration. JCTs in test compound-treated animals were compared to those in vehicle-treated animals to determine the analgesic efficacy of the test compound. All behavioral evaluations were performed by a blinded observer.
# Mechanical hyperalgesia was measured using a digital Randall-Selitto device (dRS; IITC Life Sciences©; Woodland Hills, Calif.; see Randall, L. O., and J. J. Selitto, “A Method for Measurement of Analgesic Activity on Inflamed Tissue.” Arch. Int. Pharmcodyn. 11 (1957): 409-19). Animals were allowed to acclimate to the testing room for a minimum of 15 minutes before testing. Animals were placed in a restraint sling that suspended the animal, leaving the hind limbs available for testing. The stimulus was applied to the ankle joint by a blunt tip and pressure was applied gradually over approximately 10 seconds. Joint compression threshold values were recorded at the first observed nocifensive behavior (vocalization, struggle, or withdrawal). One reading per joint was taken at each time point, and a maximum stimulus cutoff of 500 grams was used to prevent injury to the animal. The mean and standard error of the mean (SEM) were determined for ipsilateral and contralateral joints for each treatment group at each time point.
# All testing was performed in a blinded manner, with all experimenters involved in the study being unaware of the group assignment of any animal they were testing. Animals were assigned to treatment groups based on Day 0 pre-dosing JCTs so that group means of the ipsilateral JCTs were approximately equal. Animals were ranked by ipsilateral JCT and treatments assigned randomly within stratified sub-groups according to the total number of treatment groups in the study. The volume of test or control article injected was 5 mL/kg. The animals were dosed in sequence based on animal number so that the distribution of treatment across a given set of animals was not predictable.
# [2] = system: formalin-evoked spontaneous nociceptive behaviors; assay: Formalin model of pain in mice; format: in vivo, C57BL6 mice
# Experimental: The objective of this study was to evaluate the effects of Compound 1 and a peripherally-restricted kappa agonist (ICI204448) on formalin-evoked spontaneous nociceptive behaviors in mice. The study was performed by video recording of formalin-induced nociceptive behavior and then off-line scoring using a computer.
# Subcutaneous plantar injection of formalin causes a bi-phasic nocifensive behavioral response in rodents. The early phase (phase 1) lasts for about 5-10 minutes, following which an interphase occurs without any discernible nociceptive reactions, after which the late phase (phase 2) nociceptive reaction ensues continuing from about 20-60 min following formalin injection. Thus, phase 2 of the formalin model is a model of continuously present, persistent pain, and is widely used for rapid screening of novel analgesic compounds. The model encompasses inflammatory, neurogenic and central mechanisms of nociception, and the late phase (phase 2), in particular, is considered as a pharmacodynamic surrogate of central sensitization.
# In the present study, the effects of Compound 1 and ICI204448 were assessed from 0-5 minutes for the early phase (phase 1) and from 20-35 minutes for the late phase (phase 2) of formalin-induced nociceptive behavior.
# Following IACUC approval and acclimation C57BL6 mice (Charles River Canada Inc.), 20-30 g, were randomly assigned into groups with 8 mice per group as provided in Table 1:
# All animals were acclimated to the observation chamber for about 15 minutes immediately prior to formal in injection. […]
# Following injection of the formalin all animals were returned immediately to the observation chamber and formalin-evoked spontaneous nociceptive behaviors in the mice were continuously recorded for 0-40 minutes using a commercial camcorder. […]
# Scoring from the recorded video files were done off-line using a computer by a blinded observer who has been validated to score such nociceptive behaviors in rodents. The total (cumulative) time spent in a 5-minute bin was recorded using a stop-watch for the following nociceptive behaviors: biting and licking of the formalin-injected paw.
# Effects of the ICI204448 or Compound 1 were assessed in the following time periods: 0-5 minutes for the early phase (phase 1) and 20-35 minutes for the late phase (phase 2).
# Mice were injected with formalin in the hind paw after pretreatment with vehicle, high and low doses of a peripherally-restricted kappa opioid agonist (ICI204448) and high and low doses of the peripherally-restricted Compound 1. Pain was measured for 35 minutes after injection. Additionally, urine output was measured using metabolic cages in each group of mice. […]
# [3] = system: osteolytic bone cancer pain induced by MRMT-1 inoculation; assay: MRMT-1 model of osteolytic bone cancer pain in the rat (percent weight bearing score); format: in vivo, female Sprague-Dawley rats
# Experimental: Osteolytic bone cancer was produced by an injection of 3000 mammary gland carcinoma cells (MRMT-1) into the intramedullary space of the tibia. Animals received either vehicle or Compound 1 (10 mg/kg) intraperitoneally on Day 0. Morphine (6 mg/kg) served as the positive control for this study and was administered via subcutaneous injection. Bone cancer pain was assessed by measuring hind limb percent weight bearing scores (percent WBS) prior to inoculation (study day −21), and prior to administration (BL), 1, 2, and 4 hours after administration on Day 0.
# Hind limb weight bearing scores (WBS) are measured using a Linton Incapacitance Tester (Stoelting Co.©, Wood Dale, Ill.; see Medhurst, S. J., K. Walker, M. Bowes, B. L. Kidd, M. Glatt, M. Muller, M. Hattenberger, J. Vaxelaire, T. O'Reilly, G. Wotherspoon, J. Winter, J. Green, and L. Urban. “A Rat Model of Bone Cancer Pain.” Pain 96 (2002): 129-40). Animals were allowed to acclimate to the testing room for a minimum of 15 minutes before testing. Animals are placed in an acrylic test chamber. When the animal is in the correct position in the test chamber an evaluation of force was taken, with the evaluation measuring the average force exerted individually by each hind paw over a three second interval. Three evaluations of force per animal are taken at each time point. The percent WBS for the injured leg is calculated for each evaluation of force using the following formula: […]
# The mean of the 3% WBS values is taken as the % WBS for that time point. The mean and standard error of the mean (SEM) are determined for each treatment group at each time point.
# Dosing: The volume of test or negative control article injected was 5 mL/kg via intraperitoneal injection or 2 mL/kg via subcutaneous injection for morphine. The animals were dosed in sequence based on animal number, so that the distribution of treatment across a given set of animals was not predictable (Table 7).
# [4] = system: SNL-induced mechanical hyperalgesia; assay: Spinal nerve ligation (SNL) model for neuropathic pain in the rat (paw compression thresholds); format: in vivo, male Sprague-Dawley rats
# Experimental: Following IACUC approval and acclimation, neuropathy was induced in 55 male, Sprague-Dawley rats by surgically ligating the 5th and 6th lumbar spinal nerves (L5 and L6), a procedure also known as spinal nerve ligation (SNL). Mechanical sensitivity was assessed via paw compression thresholds using a digital Randall-Selitto device. Thresholds were determined prior to surgery and 15 days post-surgery, prior to study article administration. At that time, 50 animals that met the inclusion criteria were assigned to 5 groups with 10 animals per group (Table 5). To further confirm the validity as a model for neuropathic pain, gabapentin was used as an active control.
# Animals were administered a single dose of test or control compound on day 0 (i.e., 15 days after SNL) and thresholds were determined 1, 2, and 4 hours after compound administration. Response thresholds in test compound-treated animals were compared to those in vehicle-treated animals to determine the analgesic efficacy of the test compound. All behavioral evaluations were performed by a blinded observer.
# Mechanical hyperalgesia was measured using a digital Randall-Selitto device (dRS; IITC Life Sciences©; Woodland Hills, Calif.) (see Randall, L. O., and J. J. Selitto. “A Method for Measurement of Analgesic Activity on Inflamed Tissue.” Arch. Int. Pharmcodyn. 11 (1957): 409-19). Animals were allowed to acclimate to the testing room for a minimum of 15 minutes before testing. Animals were placed in a restraint sling that suspends the animal, leaving the hind limbs available for testing. The stimulus was applied to the plantar surface of the hind paw by a cone-shaped tip and pressure was applied gradually over approximately 10 seconds. Paw compression threshold values were recorded at the first observed nocifensive behavior (vocalization, struggle, or withdrawal). One reading per paw was taken at each time point, and a maximum stimulus cutoff of 300 grams was used to prevent injury to the animal. The mean and standard error of the mean (SEM) were determined for ipsilateral and contralateral paws for each treatment group at each time point.
# All testing was performed in a blinded manner, with all experimenters involved in the study being unaware of the group assignment of any animal they were testing.
# Animals were assigned to treatment groups based on Day 0 pre-dosing dRS paw compression thresholds so that group means of the ipsilateral paw compression thresholds were approximately equal. Animals were ranked by ipsilateral paw compression threshold measurement from lowest to highest and treatments assigned randomly within stratified sub-groups according to the total number of treatment groups in the study.
# The volume of test or control article injected was 5 mL/kg. The animals were dosed in sequence based on animal number, so that the distribution of treatment across a given set of animals was not predictable.
smiles,measurement,setting,value
"Cc1ccc(-c2cc(C(F)(F)F)nn2-c2ccc(S(N)(=O)=O)cc2)cc1 [Celecoxib, reference compound]",improvement of compression thresholds vs vehicle,[1]; 1-hour,did not significantly improve thresholds
same,improvement of compression thresholds vs vehicle,[1]; 2-hour and 4-hour,did show improvement compared to vehicle
"CC(C)C[C@H]1CN2C(=CC3=NC[C@H](C(C)C)N3C[C@@H]2Cc2ccc(O)cc2)N1CCc1ccccc1 [Compound 1, 4-(((2S,5S,8S)-2-isobutyl-8-isopropyl-1-phenethyl-2,3,5,6,8,9-hexahydro-1H-diimidazo[1,2-d:2′,1′-g][1,4]diazepin-5-yl)methyl)phenol]","pain behaviors, effect of low dose","[2]; 1 mg/kg IP, phase 2, compared with ICI204448 10 mg/kg",the same effect as a high dose of ICI204448
same,"pain response, effect of high dose","[2]; 10 mg/kg IP, phase 2",complete elimination of the pain response
same,time spent on pain (nociceptive) behaviors vs ICI204448,"[2]; 30-35 minutes, Compound 1 dose less than 10% of ICI204448 on a molar basis",at least as effective as ICI204448
same,pain behaviors (biting and licking of formalin-injected paw),"[2]; IP 30 min before formalin, 20-25, 25-30, 30-35 minutes (phase 2), compared with vehicle and ICI204448",reduced pain behaviors
same,reversal of hind limb weight bearing asymmetry vs pre-dosing baseline,"[3]; 10 mg/kg IP, 4 hours",significant reversal of hind limb weight bearing asymmetry
same,reversal of mechanical hyperalgesia (JCT),"[1]; 1 mg/kg IP, 2-hour and 4-hour",significantly reversed mechanical hyperalgesia
same,reversal of mechanical hyperalgesia (JCT),"[1]; 5 mg/kg IP, 2-hour and 4-hour",significantly reversed mechanical hyperalgesia
same,reversal of mechanical hyperalgesia (JCT),"[1]; 10 mg/kg IP, 1, 2, and 4 hours post dose",significantly reversed mechanical hyperalgesia
same,reversal in mechanical hyperalgesia compared with active control,[1]; Compound 1 IP vs celecoxib 30 mg/kg PO,"comparable to the active control, celecoxib"
same,reversal of SNL-induced mechanical hyperalgesia,"[4]; 1 mg/kg IP, any time point tested (1, 2, 4 hours)",did not significantly reverse SNL-induced mechanical hyperalgesia
same,reversal of SNL-induced mechanical hyperalgesia,"[4]; 5 mg/kg IP, 1-hour",did not significantly reverse SNL-induced mechanical hyperalgesia
same,reversal of SNL-induced mechanical hyperalgesia,"[4]; 5 mg/kg IP, 2-hour and 4-hour",did significantly reverse SNL-induced mechanical hyperalgesia
same,reversal of SNL-induced mechanical hyperalgesia,"[4]; 10 mg/kg IP, 1-hour",did not significantly reverse SNL-induced mechanical hyperalgesia
same,reversal of SNL-induced mechanical hyperalgesia,"[4]; 10 mg/kg IP, 2-hour and 4-hour",did significantly reverse SNL-induced mechanical hyperalgesia
same,reversal of mechanical hyperalgesia compared with active control,[4]; Compound 1 5 mg/kg and 10 mg/kg vs gabapentin 100 mg/kg,"did not differ significantly from the active control, gabapentin"
"NCC1(CC(=O)O)CCCCC1 [Gabapentin, reference compound]",reversal of SNL-induced mechanical hyperalgesia,"[4]; 100 mg/kg IP, 1, 2, and 4-hours",significantly reversed SNL-induced mechanical hyperalgesia
CN1CC[C@]23c4c5ccc(O)c4O[C@H]2[C@@H](O)C=C[C@H]3[C@H]1C5 [Morphine],reversal of hind limb weight bearing asymmetry vs pre-dosing baseline,"[3]; 6 mg/kg subcutaneous, 1 and 2 hours",time-dependent reversal of hind limb weight bearing asymmetry
same,improvement in weight-bearing,"[3]; 6 mg/kg subcutaneous, 4-hours",did not produce significant improvement
